According to patent US20240025924A1, “HETEROCYCLE SUBSTITUTED KETONE DERIVATIVE, AND COMPOSITION AND MEDICINAL USE THEREOF” (SHANGHAI HAIYAN PHARMACEUTICAL TECHNOLOGY CO., LTD., priority 2021, published 2024):

Experiments:
[1] = biological target: T1, SHP-2 enzyme (Homo sapiens, UniProt Q06124); test: Phosphatase activity assay (Homogeneous Full Length SHP-2 Assay Kit, DiFMUP substrate); type: biochemical; settings: full length SHP-2 activated with 0.5 μM SHP-2 activating Peptide; 1 hour co-incubation; DiFMUP 50 μM, 30 min
T1 construct: Homogeneous Full Length SHP-2 Assay Kit (BPS Bioscience #79330); purchased BPS Bioscience 79330
T1 sequence (Q06124 1-593): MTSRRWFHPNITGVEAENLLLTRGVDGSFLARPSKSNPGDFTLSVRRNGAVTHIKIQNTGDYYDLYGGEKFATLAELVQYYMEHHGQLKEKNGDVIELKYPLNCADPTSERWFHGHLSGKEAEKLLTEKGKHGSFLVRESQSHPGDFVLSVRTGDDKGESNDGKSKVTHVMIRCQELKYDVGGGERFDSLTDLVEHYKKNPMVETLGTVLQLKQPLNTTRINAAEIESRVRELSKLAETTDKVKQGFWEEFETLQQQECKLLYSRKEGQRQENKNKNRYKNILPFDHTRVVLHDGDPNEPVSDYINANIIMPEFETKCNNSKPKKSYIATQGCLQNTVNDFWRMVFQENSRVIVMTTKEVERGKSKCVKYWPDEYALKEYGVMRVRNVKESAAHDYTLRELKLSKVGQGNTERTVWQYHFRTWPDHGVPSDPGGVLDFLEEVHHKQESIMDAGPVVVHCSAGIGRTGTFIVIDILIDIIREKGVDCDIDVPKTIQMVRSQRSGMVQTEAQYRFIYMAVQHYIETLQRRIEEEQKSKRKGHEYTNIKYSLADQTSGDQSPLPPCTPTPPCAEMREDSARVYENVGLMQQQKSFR
Experimental: IC50 values were assayed using Homogeneous Full Length SHP-2 Assay Kit (BPS Bioscience #79330), which uses 6,8-difluoro-4-methylumbelliferone phosphate (DiFMUP) as the reaction substrate. SHP2 enzyme solution (diluted to 0.04 ng/μL with 1*buffer) was mixed with 0.5 μM SHP-2 activating Peptide in a 1*buffer solution containing 2.5 mM DTT to activate PTP. At the same time, DMSO (0.1% (V/V)) or the compounds (concentration: 0.5 nM to 1 μM) were added, mixed and co-incubated for 1 hour. DiFMUP (50 μM, total reaction system volume of 20 μL) was added, and the reaction was started. After 30 min of incubation, the fluorescence intensity of the reaction system (excitation wavelength: 350 nm, emission wavelength: 460 nm) was measured by Tecan Infinite M1000.

[2] = system: MV-4-11 cell; test: Cell proliferation assay (Cell Titer-Glo); type: cell-based; settings: Homo sapiens, MV4-11, 96 h, inhibition of MV-4-11 cell proliferation; Cell Titer-Glo on day 4
Experimental: MV 411 cells (20000 cells/well) were inoculated and cultured in 96 (Corning #3916) well plates, and the medium was 80 μL/well (IMDM with 10% fetal bovine serum (FBS), Gibco #10099-141C). After 24 hours of incubation, 20 μL of the compounds of the present invention configured to different concentrations (DMSO final concentration of 0.1% (V/V)) were added. On day 4, 60 μL of Cell Titer-Glo (Promega #G7558) was added to each well and mixed at 80 rpm, 25° C., 15 min, and the fluorescence values were detected by Victor X5 (PE).

Row | SMILES | IC50 [1] [nM] | IC50 [2] [nM]
1 | Nc1nc(N2CCC3(CC2)Cc2ccc(Cl)cc2C3N)cnc1C(=O)N1CCCn2nccc21 (centres unmarked) [Compound 2] | 4 | 24
2 | Nc1nc(N2CCC3(CC2)Cc2ccccc2C3N)cnc1C(=O)N1CCCn2nccc21 (centres unmarked) [Compound 3] | 13 | 54
3 | Nc1nc(N2CCC3(CC2)Cc2cc(F)ccc2C3N)cnc1C(=O)N1CCCn2nccc21 (centres unmarked) [Compound 4] | 1 | 78
4 | COc1ccc2c(c1)C(N)C1(CCN(c3cnc(C(=O)N4CCCn5nccc54)c(N)n3)CC1)C2 (centres unmarked) [Compound 5] | 1 | 220
5 | Nc1nc(N2CCC3(CC2)Cc2ccccc2C3N)cnc1C(=O)N1CCOc2cccnc21 (centres unmarked) [Compound 6] | 83 | 
6 | Nc1nc(N2CCC3(CC2)Cc2ccccc2C3N)cnc1C(=O)N1CCc2ncccc21 (centres unmarked) [Compound 7] | 6 | 95
7 | Nc1nc(N2CCC3(CC2)Cc2ccc(F)cc2C3N)cnc1C(=O)N1CCCn2nccc21 (centres unmarked) [Compound 8] | 5 | 111
8 | NC1c2ccccc2CC12CCN(c1cnc(C(=O)N3CCCn4nccc43)cn1)CC2 (centres unmarked) [Compound 9] | 59 | 
9 | Nc1nc(N2CCC3(CC2)Cc2ccccc2C3N)cnc1C(=O)N1CCc2ncsc2C1 (centres unmarked) [Compound 10] | 4 | 44
10 | Nc1nc(N2CCC3(CC2)Cc2ccccc2C3N)cnc1C(=O)N1CCOc2ncccc21 (centres unmarked) [Compound 11] | 24 | 
11 | Nc1nc(N2CCC3(CC2)Cc2ccccc2C3N)cnc1C(=O)N1CCCc2cccnc21 (centres unmarked) [Compound 12] | 49 | 
12 | Nc1nc(N2CCC3(CC2)Cc2ccccc2C3N)cnc1C(=O)N1CCCc2ncccc21 (centres unmarked) [Compound 13] | 11 | 82
13 | Nc1nc(N2CCC3(CC2)Cc2ccccc2C3N)cnc1C(=O)N1CCCc2c(Cl)cccc21 (centres unmarked) [Compound 14] | 22 | 
14 | N#Cc1cccc2c1CCCN2C(=O)c1ncc(N2CCC3(CC2)Cc2ccccc2C3N)nc1N (centres unmarked) [Compound 15] | 13 | 170
15 | Nc1nc(N2CCC3(CC2)Cc2ccc(F)cc2C3N)cnc1C(=O)N1CCc2ncccc21 (centres unmarked) [Compound 16] | 5 | 40
16 | Nc1nc(N2CCC3(CC2)Cc2ccc(F)cc2C3N)cnc1C(=O)N1CCc2ncsc2C1 (centres unmarked) [Compound 17] | 4 | 17
17 | Nc1nc(N2CCC3(CC2)Cc2ccccc2C3N)cnc1C(=O)N1CCc2scnc2C1 (centres unmarked) [Compound 19] | 5 | 142
18 | Nc1nc(N2CCC3(CC2)Cc2ccccc2C3N)cnc1C(=O)N1Cc2cccnc2C1 (centres unmarked) [Compound 20] | 17 | 
19 | Nc1nc(N2CCC3(CC2)Cc2cc(F)ccc2C3N)cnc1C(=O)N1CCc2ncccc21 (centres unmarked) [Compound 21] | 3 | 107
20 | Nc1nc(N2CCC3(CC2)Cc2ccc(C(F)(F)F)cc2C3N)cnc1C(=O)N1CCCn2nccc21 (centres unmarked) [Compound 22] | 6 | 78
21 | NC(=O)c1nc(C(=O)N2CCCn3nccc32)cnc1N1CCC2(CC1)Cc1ccccc1C2N (centres unmarked) [Compound 23] | 22 | 
22 | Nc1nc(N2CCC3(CC2)Cc2sc(Cl)nc2C3N)cnc1C(=O)N1CCCn2nccc21 (centres unmarked) [Compound 25] | 15 | 
23 | Cc1nc(C(=O)N2CCCn3nccc32)c(N)nc1N1CCC2(CC1)Cc1ccc(F)cc1C2N (centres unmarked) [Compound 27] | 5 | 98
24 | Nc1nc(N2CCC3(CC2)Cc2ccccc2C3N)c(Cl)nc1C(=O)N1CCCn2nccc21 (centres unmarked) [Compound 28] | 4 | 44
25 | Nc1nc(N2CCC3(CC2)Cc2ccccc2C3N)c(Br)nc1C(=O)N1CCCn2ncc(Br)c21 (centres unmarked) [Compound 29] | 43 | 

Row | SMILES | IC50 [1] [nM] | IC50 [2] [nM]
26 | Nc1nc(N2CCC3(CC2)Cc2ccccc2C3N)c(Cl)nc1C(=O)N1CCCn2ncc(Cl)c21 (centres unmarked) [Compound 31] | 47 | 
27 | Cc1cc2n(n1)CCCN2C(=O)c1ncc(N2CCC3(CC2)Cc2ccccc2C3N)nc1N (centres unmarked) [Compound 32] | 28 | 
28 | Cn1cc(-c2ccc3c(n2)CCCN3C(=O)c2ncc(N3CCC4(CC3)Cc3ccccc3C4N)nc2N)cn1 (centres unmarked) [Compound 33] | 29 | 285
29 | N#Cc1ccc2c(c1)C(N)C1(CCN(c3cnc(C(=O)N4CCCn5nccc54)c(N)n3)CC1)C2 (centres unmarked) [Compound 34] | 6 | 56
30 | CC1(C)CN(C(=O)c2ncc(N3CCC4(CC3)Cc3ccccc3C4N)nc2N)c2cccnc21 (centres unmarked) [Compound 36] | 18 | 
31 | Nc1nc(N2CCC3(CC2)Cc2ncccc2C3N)cnc1C(=O)N1CCCn2nccc21 (centres unmarked) [Compound 39] | 36 | 
32 | Cc1nc(N2CCC3(CC2)Cc2ccccc2C3N)c(CO)nc1C(=O)N1CCCn2nccc21 (centres unmarked) [Compound 43] | 60 | 
33 | Cc1nc(N2CCC3(CC2)Cc2ccccc2C3N)c(C(N)=O)nc1C(=O)N1CCCn2nccc21 (centres unmarked) [Compound 44] | 25 | 
34 | Nc1nc(N2CCC3(CC2)Cc2cc(Cl)ccc2C3N)cnc1C(=O)N1CCCn2nccc21 (centres unmarked) [Compound 48] | 4 | 
35 | Nc1nc(N2CCC3(CC2)Cc2ccccc2C3N)cnc1C(=O)N1CCc2ncncc21 (centres unmarked) [Compound 51] | 35 | 
36 | Nc1nc(N2CCC3(CC2)Cc2cc(C(F)(F)F)ccc2C3N)cnc1C(=O)N1CCCn2nccc21 (centres unmarked) [Compound 55] | 50 | 
37 | CC(C)(O)c1ccc2c(c1)C(N)C1(CCN(c3cnc(C(=O)N4CCCn5nccc54)c(N)n3)CC1)C2 (centres unmarked) [Compound 56] | 21 | 
38 | CC1CN(C(=O)c2ncc(N3CCC4(CC3)Cc3ccccc3C4N)nc2N)c2cccnc21 (centres unmarked) [Compound 57] | 6 | 
39 | CC1(C)Cc2nc(N)sc2CN1C(=O)c1ncc(N2CCC3(CC2)Cc2ccccc2C3N)nc1N (centres unmarked) [Compound 69] |  | 49
40 | [2H]C1([2H])CN(C(=O)c2ncc(N3CCC4(CC3)Cc3ccc(C)cc3C4N)nc2N)Cc2sc(N)nc21 (centres unmarked) [Compound 71] |  | 16
41 | Cc1ccc2c(c1)C(N)C1(CCN(c3cnc(C(=O)N4Cc5sc(N)nc5C(F)(F)C4)c(N)n3)CC1)C2 (centres unmarked) [Compound 72] |  | 12
42 | COc1ccc2c(c1)C(N)C1(CCN(c3cnc(C(=O)N4Cc5sc(N)nc5C(F)(F)C4)c(N)n3)CC1)C2 (centres unmarked) [Compound 73] |  | 19
43 | Nc1nc2c(s1)CN(C(=O)c1cnc(N3CCC4(CC3)Cc3ccccc3C4N)c(CO)n1)CC2(F)F (centres unmarked) [Compound 74] |  | 6
44 | Nc1ccc2c(n1)CCN2C(=O)c1ncc(N2CCC3(CC2)Cc2cccc(F)c2C3N)nc1N (centres unmarked) [Compound 90] | 24 | 
45 | Nc1ccc2c(n1)CCN2C(=O)c1ncc(N2CCC3(CC2)Cc2ccncc2C3N)nc1N (centres unmarked) [Compound 97] | 10 | 
46 | Nc1ccc2c(n1)CCCN2C(=O)c1ncc(N2CCC3(CC2)Cc2ccccc2C3N)nc1N (centres unmarked) [Compound 98] | 26 | 
47 | Cc1nc(N2CCC3(CC2)Cc2ccccc2C3N)c(CO)nc1C(=O)N1CCc2nc(N)ccc21 (centres unmarked) [Compound 111] | 15 | 
48 | CC1(C)Cc2nc(N)sc2CN1C(=O)c1ncc(N2CCC3(CC2)Cc2ccccc2C3N)nc1N (centres unmarked) [Compound 121] | 9 | 
49 | [2H]C1([2H])CN(C(=O)c2ncc(N3CCC4(CC3)Cc3ccc(C)cc3C4N)nc2N)Cc2sc(N)nc21 (centres unmarked) [Compound 123] | 5 | 
50 | Cc1ccc2c(c1)C(N)C1(CCN(c3cnc(C(=O)N4Cc5sc(N)nc5C(F)(F)C4)c(N)n3)CC1)C2 (centres unmarked) [Compound 124] | 9 | 
